Measurements taken from patent publication US9302999B2, “Substituted triazoles as herbicides” (E. I. DU PONT DE NEMOURS AND COMPANY, priority 2012, dated 2016).
Read-outs that look alike come from different tables or passages of the source.

Tests used:
Format in all cases: in vivo
[1] = system: barnyardgrass (Echinochloa crus-galli); assay: Test C flooded paddy test: barnyardgrass; settings: scale 0 to 100 (0 no effect, 100 complete control); for pest or weed control at 62 g/ha / pest or weed control at 125 g/ha / pest or weed control at 250 g/ha / pest or weed control at 31 g/ha: Echinochloa crus-galli, read-out: Plant response rating, Barnyardgrass
Procedure, shortened: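 2-leaf stage plants; pots flooded 3 cm above soil; compound applied into paddy water, depth maintained. Greenhouse 13–15 d. Visual rating vs controls, 0–100 (0 = no effect, 100 = complete control); dash = no result.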

[2] = system: cocklebur (common cocklebur, Xanthium strumarium); assay: Test C pre-/postemergence: cocklebur
Excerpt: (§1) Seeds of plant species selected from blackgrass (Alopecurus myosuroides), bromegrass, downy (downy bromegrass, Bromus tectorum), foxtail, green (green foxtail, Setaria viridis), ryegrass, Italian (Italian ryegrass, Lolium multiflorum), winter wheat (Triticum aestivum), wild oat (Avena fatua), galium (catchweed bedstraw, Galium aparine), bermudagrass (Cynodon dactylon), surinam grass (Brachiaria decumbens), cocklebur (common cocklebur, Xanthium strumarium), corn (Zea mays), large crabgrass (Digitaria sanguinalis), woolly cupgrass (Eriochloa villosa), foxtail, giant (giant foxtail, Setaria faberii), goosegrass (Eleusine indica), johnsongrass (Sorghum halepense), kochia (Kochia scoparia), lambsquarters (Chenopodium album), morningglory (Ipomoea coccinea), nightshade (eastern black nightshade, Solanum ptycanthum), nutsedge, yellow (yellow nutsedge, Cyperus esculentus), pigweed (Amaranthus retroflexus), ragweed (common ragweed, Ambrosia elation), soybean (Glycine max), common (oilseed) sunflower (Helianthus annuus), Russian thistle (Salsola kali) and velvetleaf (Abutilon theophrasti) were planted into a blend of loam soil and sand and treated preemergence with test chemicals formulated in a non-phytotoxic solvent mixture which included a surfactant.
(§2) At the same time, plants selected from these crop and weed species and also barley (winter barley, Hordeum vulgare), canarygrass (Phalaris minor), chickweed (common chickweed, Stellaria media) windgrass (Apera spica-venti) and deadnettle (henbit deadnettle, Lamium amplexicaule) were planted in pots containing Redi-Earth® planting medium (Scotts Company, 14111 Scottslawn Road, Marysville, Ohio 43041) comprising spaghnum peat moss, vermiculite, wetting agent and starter nutrients and treated with postemergence applications of test chemicals formulated in the same manner. Plants ranged in height from 2 to 18 cm (1- to 4-leaf stage) for postemergence treatments.
(§3) Treated plants and controls were maintained in a greenhouse for 13 to 15 days, after which time all species were compared to controls and visually evaluated. Plant response ratings, summarized in Table C, are based on a scale of 0 to 100 where 0 is no effect and 100 is complete control. A dash (-) response means no test result.

[3] = system: surinam grass (Brachiaria decumbens); assay: Test C pre-/postemergence: surinam grass
Excerpt: as §1, §2, §3

[4] = system: oat, wild (wild oat, Avena fatua); assay: Test D pre-/postemergence: oat, wild; settings: Postemergence
Excerpt: (§4) Seeds of plant species selected from bluegrass (annual bluegrass, Poa annua), blackgrass (Alopecurus myosuroides), canarygrass (Phalaris minor), chickweed (common chickweed, Stellaria media), galium (catchweed bedstraw, Galium aparine), bromegrass, downy (downy bromegrass, Bromus tectorum), field poppy (Papaver rhoeas), field violet (Viola arvensis), foxtail, green (green foxtail, Setaria viridis), deadnettle (henbit deadnettle, Lamium amplexicaule), ryegrass, Italian (Italian ryegrass, Lolium multiflorum), kochia (Kochia scoparia), lambsquarters (Chenopodium album), oilseed rape (Brassica napus), pigweed (Amaranthus retroflexus), Russian thistle (Salsola iberica), chamomile (scentless chamomile, Matricaria inodora), speedwell (bird's-eye speedwell, Veronica persica), barley, spring (spring barley, Hordeum vulgare), wheat, spring (spring wheat, Triticum aestivum), buckwheat, wild (wild buckwheat, Polygonum convolvulus), mustard, wild (wild mustard, Sinapis arvensis), oat, wild (wild oat, Avena fatua), radish, wild (wild radish, Raphanus raphanistrum), windgrass (Apera spica-venti), barley, winter (winter barley, Hordeum vulgare), and wheat, winter (winter wheat, Triticum aestivum) were planted into a silt loam soil and treated preemergence with test chemicals formulated in a non-phytotoxic solvent mixture which included a surfactant. At the same time, these same crop and weed species were planted in pots containing the planting medium comprising spaghnum peat moss, vermiculite, wetting agent and starter nutrients and treated with postemergence applications of the test chemicals formulated in the same manner. Plants ranged in height from 2 to 18 cm (1- to 4-leaf stage).
as §3, with “controlled growth environment” for “greenhouse”, “14” for “13”, “21 days” for “15 days,”, “D,” for “C,”

[5] = system: chamomile (scentless chamomile, Matricaria inodora); assay: Test D pre-/postemergence: chamomile; settings: Postemergence
Excerpt: as §4
as §3, with “controlled growth environment” for “greenhouse”, “14” for “13”, “21 days” for “15 days,”, “D,” for “C,”

[6] = system: blackgrass (Alopecurus myosuroides); assay: Test D pre-/postemergence: blackgrass; settings: Postemergence
Excerpt: as §4
as §3, with “controlled growth environment” for “greenhouse”, “14” for “13”, “21 days” for “15 days,”, “D,” for “C,”

[7] = system: buckwheat, wild (wild buckwheat, Polygonum convolvulus); assay: Test D pre-/postemergence: buckwheat, wild; settings: Postemergence
Excerpt: as §4
as §3, with “controlled growth environment” for “greenhouse”, “14” for “13”, “21 days” for “15 days,”, “D,” for “C,”

[8] = system: canarygrass (Phalaris minor); assay: Test D pre-/postemergence: canarygrass; settings: Postemergence
Excerpt: as §4
as §3, with “controlled growth environment” for “greenhouse”, “14” for “13”, “21 days” for “15 days,”, “D,” for “C,”

[9] = Flood (flooded paddy test), 62 g ai/ha, visual rating after 13 to 15 days
[10] = Flood (flooded paddy test), 125 g ai/ha, visual rating after 13 to 15 days
[11] = Flood (flooded paddy test), 250 g ai/ha, visual rating after 13 to 15 days
[12] = Postemergence, 31 g ai/ha, scale 0 to 100 (0 no effect, 100 complete control)
[13] = Postemergence, 62 g ai/ha, scale 0 to 100 (0 no effect, 100 complete control)
[14] = Postemergence, 125 g ai/ha, scale 0 to 100, 0 no effect, 100 complete control
[15] = Postemergence, 250 g ai/ha, scale 0 to 100
[16] = Preemergence, 31 g ai/ha, scale of 0 to 100, 0 is no effect, 100 is complete control
[17] = Preemergence, 125 g ai/ha, scale 0 to 100, 0 no effect, 100 complete control
[18] = Preemergence, 250 g ai/ha, scale 0 to 100, 0 no effect, 100 complete control
[19] = Preemergence, 62 g ai/ha, scale of 0 to 100, 0 is no effect, 100 is complete control
[20] = 31 g ai/ha, scale 0 to 100 (0 no effect, 100 complete control)
[21] = 62 g ai/ha, scale 0 to 100 (0 no effect, 100 complete control)
[22] = 125 g ai/ha, scale 0 to 100, 0 no effect, 100 complete control
[23] = 250 g ai/ha, scale 0 to 100 (0 no effect, 100 complete control)
[24] = Postemergence, 16 g ai/ha, scale 0 to 100, 0 no effect, 100 complete control

## Cc1nn(-c2ccc(C(F)(F)F)cc2)nc1Cc1ccnc(C(F)(F)F)c1 [Compound 47, 4-[[5-methyl-2-[4-(trifluoromethyl)phenyl]-2H-1,2,3-triazol-4-yl]methyl]-2-(trifluoromethyl)pyridine]
[1]; [9]
  pest or weed control at 62 g/ha: 50%
[1]; [10]
  pest or weed control at 125 g/ha: 80%
[1]; [11]
  pest or weed control at 250 g/ha: 80%
[1]; Flood, 31 g ai/ha
  pest or weed control at 31 g/ha: 40%
[2]; [12]
  Plant response rating, Cocklebur: 10
[2]; [13]
  Plant response rating, Cocklebur: 65
[2]; [14]
  Plant response rating, Cocklebur: 70
[2]; [15]
  Plant response rating, Cocklebur: 70
[2]; [16]
  Plant response rating, Cocklebur: 0
[2]; Preemergence, 62 g ai/ha, scale 0 to 100, 0 no effect, 100 complete control
  Plant response rating, Cocklebur: 0
[2]; [17]
  Plant response rating, Cocklebur: 0
[2]; [18]
  Plant response rating, Cocklebur: 5
[3]; [12]
  Plant response rating, Surinam Grass: 5
[3]; [13]
  Plant response rating, Surinam Grass: 10
[3]; [14]
  Plant response rating, Surinam Grass: 60
[3]; [15]
  Plant response rating, Surinam Grass: 60
[3]; [16]
  Plant response rating, Surinam Grass: 5
[3]; [19]
  Plant response rating, Surinam Grass: 20
[3]; [17]
  Plant response rating, Surinam Grass: 65
[3]; [18]
  Plant response rating, Surinam Grass: 65

## Cc1nn(-c2ccnc(C(F)(F)F)c2)nc1Cc1ccnc(C(F)(F)F)c1 [Compound 137]
[4]; [20]
  Plant response rating: Oat, Wild: 10
[4]; [21]
  Plant response rating: Oat, Wild: 20
[4]; [22]
  Plant response rating: Oat, Wild: 35
[4]; [23]
  Plant response rating: Oat, Wild: 50
[4]; 16 g ai/ha, scale 0 to 100
  Plant response rating, Oat, Wild: 0
[5]; [20]
  Plant response rating: Chamomile: 10
[5]; [21]
  Plant response rating: Chamomile: 15
[5]; [22]
  Plant response rating: Chamomile: 20
[5]; [23]
  Plant response rating: Chamomile: 40
[5]; 16 g ai/ha, scale 0 to 100
  Plant response rating, Chamomile: 0
[6]; [20]
  Plant response rating: Blackgrass: 30
[6]; [21]
  Plant response rating: Blackgrass: 50
[6]; [22]
  Plant response rating: Blackgrass: 70
[6]; [23]
  Plant response rating: Blackgrass: 80
[6]; 16 g ai/ha, scale 0 to 100
  Plant response rating, Blackgrass: 10
[7]; [20]
  Plant response rating: Buckwheat, Wild: 30
[7]; [21]
  Plant response rating: Buckwheat, Wild: 65
[7]; [22]
  Plant response rating: Buckwheat, Wild: 65
[7]; [23]
  Plant response rating: Buckwheat, Wild: 80
[7]; 16 g ai/ha, scale 0 to 100
  Plant response rating, Buckwheat, Wild: 30
[8]; [20]
  Plant response rating: Canarygrass: 20
[8]; [21]
  Plant response rating: Canarygrass: 30
[8]; [22]
  Plant response rating: Canarygrass: 50
[8]; [23]
  Plant response rating: Canarygrass: 75
[8]; 16 g ai/ha, scale 0 to 100
  Plant response rating, Canarygrass: 10
[2]; [12]
  Plant response rating, Cocklebur: 45
[2]; [13]
  Plant response rating, Cocklebur: 50
[2]; [15]
  Plant response rating, Cocklebur: 60
[3]; [12]
  Plant response rating, Surinam Grass: 40
[3]; [13]
  Plant response rating, Surinam Grass: 45
[3]; [14]
  Plant response rating, Surinam Grass: 45
[3]; [15]
  Plant response rating, Surinam Grass: 45

## COc1nn(-c2ccc(C(F)(F)F)cc2)nc1Cn1ccc(C(F)(F)F)n1 [Compound 17, 4-methoxy-2-[4-(trifluoromethyl)phenyl]-5-[[3-(trifluoromethyl)-1H-pyrazol-1-yl]methyl]-2H-1,2,3-triazole]
[1]; [9]
  pest or weed control at 62 g/ha: 20%
[1]; [10]
  pest or weed control at 125 g/ha: 40%
[1]; [11]
  pest or weed control at 250 g/ha: 45%
[1]; Flood, 31 g ai/ha
  pest or weed control at 31 g/ha: 0%

## CCc1nn(-c2ccc(C(F)(F)F)cc2)nc1Oc1cccc(OC(F)(F)F)c1 [Compound 125, 4-ethyl-5-[3-(trifluoromethoxy)phenoxy]-2-[4-(trifluoromethyl)phenyl]-2H-1,2,3-triazole]
[1]; [10]
  pest or weed control at 125 g/ha: 0%
[1]; [11]
  pest or weed control at 250 g/ha: 10%
[1]; Flood, 31 g ai/ha
  pest or weed control at 31 g/ha: 0%
[1]; Flood, 62 g ai/ha
  pest or weed control at 62 g/ha: 0%

## Fc1ccc(-n2nc(Cc3ccnc(C(F)(F)F)c3)c(OCC(F)(F)F)n2)cc1 [Compound 142]
[2]; [13]
  Plant response rating, Cocklebur: 30
[2]; [14]
  Plant response rating, Cocklebur: 40
[2]; [15]
  Plant response rating, Cocklebur: 50
[2]; [16]
  Plant response rating, Cocklebur: 0
[2]; [19]
  Plant response rating, Cocklebur: 10
[2]; [17]
  Plant response rating, Cocklebur: 10
[3]; [12]
  Plant response rating, Surinam Grass: 40
[3]; [13]
  Plant response rating, Surinam Grass: 40
[3]; [14]
  Plant response rating, Surinam Grass: 45
[3]; [15]
  Plant response rating, Surinam Grass: 50
[3]; [16]
  Plant response rating, Surinam Grass: 60
[3]; [19]
  Plant response rating, Surinam Grass: 75
[3]; [17]
  Plant response rating, Surinam Grass: 98
[3]; [18]
  Plant response rating, Surinam Grass: 98

## Cc1nn(-c2ccc(C(F)(F)F)cc2)nc1Cc1cccc(C(F)(F)F)c1 [Compound 124]
[1]; [10]
  Plant response rating, Barnyardgrass: 50
[1]; [11]
  Plant response rating, Barnyardgrass: 50
[1]; Flood, 31 g ai/ha
  Plant response rating, Barnyardgrass: 20
[1]; Flood, 62 g ai/ha
  Plant response rating, Barnyardgrass: 40
[2]; [24]
  Plant response rating, Cocklebur: 10
[2]; [12]
  Plant response rating, Cocklebur: 15
[2]; [13]
  Plant response rating, Cocklebur: 20
[2]; [14]
  Plant response rating, Cocklebur: 55
[3]; [24]
  Plant response rating, Surinam Grass: 5
[3]; [12]
  Plant response rating, Surinam Grass: 10
[3]; [13]
  Plant response rating, Surinam Grass: 15
[3]; [14]
  Plant response rating, Surinam Grass: 20
